The values below come from patent US11958856B2, “Substituted 1,2,3,8,9,9a-hexahydro-5H-pyrrolo[1,2-a]azepin-5-ones as factor XIa inhibitors” (Janssen Pharmaceutica NV, priority 2021, dated 2024).

Peptide text beside a SMILES is read from it. * marks the point of attachment. 5FAM = O=C1OC2(c3ccc(O)cc3Oc3cc(O)ccc32)c2ccc(C(=O)*)cc21; AMC = Cc1cc(=O)oc2cc(N*)ccc12; Cbz = O=C(OCc1ccccc1)*

Holding throughout (type): biochemical
For assay [1], the target named is T1, Factor XIa (Homo sapiens, UniProt P03951). The experiment in a line: Kinetic parameters of the peptide substrate with Factor XIa (substrate inhibition model). The conditions noted are these: substrate of FXIa. From the text:
(§1) A fluorescence intensity (FLINT) based assay was used to monitor inhibition of Factor XIa. The peptide substrate, 5Fam-KLTRAETV-K5Tamra (purchased from New England Peptide) was chosen based on the FXI sequence. Conversion of zymogen FXI to its activated form, FXIa, occurs by proteolytic cleavage by […] at two sites, Arg146 and Arg180. The custom peptide used in this assay was based on the Arg146 cleavage site of FXI. The peptide substrate was designed with a fluorophore-quencher pair, where the fluorescence is quenched until FXIa cleaves the 8-mer peptide after the Arg residue.

The target in assay [2] is T2, human plasma kallikrein (Homo sapiens, UniProt P03952). The experiment in a line: Kinetic parameters of the peptide substrate with kallikrein (Michaelis-Menten fit). The text has this:
(§2) A fluorescence intensity (FLINT) based assay was used to monitor inhibition of human plasma kallikrein. The peptide substrate, Z-Gly-Pro-Arg-AMC (Purchased from Bachem; Catalog #I-1150) was chosen based on its relatively low KM for kallikrein which enables running the assay at lower substrate concentrations to control background fluorescence.

Assay [3] deals with T1, Factor XIa. The experiment in a line: Factor XIa inhibition assay (FLINT) with fluorophore-quencher pair peptide substrate.
From the text: Biological Example 1: Factor XIa Inhibition Assay Utilizing a Fluorophore-Quencher Pair Peptide Substrate
as §1
The Factor XIa FLINT assay was used with the following 5Fam-KLTRAETV-K5Tamra assay buffer: 50 mM Tris, pH 7.5, 100 mM NaCl, 5 mM CaCl2, 0.1 mg/mL BSA, 0.03% CHAPS. […]
Test compound(s) were run in an 11-point, 3-fold serial dilution with a final top compound concentration of 100 nM. […] The assay was run with kinetic (KIN) reads at 5 min intervals over 30 minutes. […]
(§3) Percent inhibition (IC50) curves were generated per compound tested, and data was analyzed using a 4-parameter logistic fit using GeneData Screener. The relative fluorescence unit (RFU) values were normalized to percent inhibition using the following equation: % inhibition=((HC−LC)−(compound−LC)/(HC−LC))*100 […]

In assay [4] the target is T2, human plasma kallikrein. The experiment in a line: Kallikrein inhibition assay (FLINT) with quenched AMC peptide substrate. To be noted: 30 min preincubation; 50 μM Z-Gly-Pro-Arg-AMC substrate; 2 nM kallikrein; top compound concentration 1 μM.
From the text: Biological Example 2: Kallikrein Inhibition Assay Utilizing a Quenched AMC Peptide Substrate
as §2
The Kallikrein FLINT assay was used with the following Z-Gly-Pro-Arg-AMC assay buffer: 50 mM Tris, pH 7.5, 100 mM NaCl, 5 mM CaCl2, 0.1 mg/mL BSA, 0.03% CHAPS. Assay buffer was prepared by mixing all ingredients fresh. 2× Z-Gly-Pro-Arg-AMC peptide substrate was prepared by diluting 10 mM stock into 1× assay buffer for a 100 μM working concentration (50 μM final concentration). […]
Test compound(s) were run in an 11-point, 3-fold serial dilution with a final top compound concentration of 1 μM. […] The assay was run with kinetic (KIN) reads at 5 min intervals over 30 minutes. […]
as §3

T1 sequence (P03951 388-625 limits assumed): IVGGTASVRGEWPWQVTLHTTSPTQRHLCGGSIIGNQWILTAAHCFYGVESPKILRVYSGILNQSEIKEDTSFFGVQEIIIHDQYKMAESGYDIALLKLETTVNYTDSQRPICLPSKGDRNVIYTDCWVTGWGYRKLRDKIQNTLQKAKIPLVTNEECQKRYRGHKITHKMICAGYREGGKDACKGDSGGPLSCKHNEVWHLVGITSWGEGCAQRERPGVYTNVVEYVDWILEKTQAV
T1 sequence (P03951 19-387 partner limits assumed): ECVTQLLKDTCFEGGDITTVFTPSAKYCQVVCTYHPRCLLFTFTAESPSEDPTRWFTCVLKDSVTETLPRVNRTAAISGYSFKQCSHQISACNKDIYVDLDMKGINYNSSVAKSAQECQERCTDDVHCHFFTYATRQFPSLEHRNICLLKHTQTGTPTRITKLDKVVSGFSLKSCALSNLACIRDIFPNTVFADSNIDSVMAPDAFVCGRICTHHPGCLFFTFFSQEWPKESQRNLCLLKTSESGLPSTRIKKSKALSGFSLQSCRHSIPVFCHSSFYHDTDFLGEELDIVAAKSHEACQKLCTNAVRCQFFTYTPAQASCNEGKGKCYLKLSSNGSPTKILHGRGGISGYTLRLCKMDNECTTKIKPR
T2 sequence (P03952 391-638 limits assumed): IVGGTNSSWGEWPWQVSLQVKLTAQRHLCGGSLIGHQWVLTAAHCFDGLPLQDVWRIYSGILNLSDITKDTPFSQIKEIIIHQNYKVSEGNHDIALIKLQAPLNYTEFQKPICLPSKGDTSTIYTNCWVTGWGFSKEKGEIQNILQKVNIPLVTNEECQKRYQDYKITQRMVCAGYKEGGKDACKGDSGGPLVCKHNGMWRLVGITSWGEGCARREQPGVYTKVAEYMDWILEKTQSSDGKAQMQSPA
T2 sequence (P03952 20-390 partner limits assumed): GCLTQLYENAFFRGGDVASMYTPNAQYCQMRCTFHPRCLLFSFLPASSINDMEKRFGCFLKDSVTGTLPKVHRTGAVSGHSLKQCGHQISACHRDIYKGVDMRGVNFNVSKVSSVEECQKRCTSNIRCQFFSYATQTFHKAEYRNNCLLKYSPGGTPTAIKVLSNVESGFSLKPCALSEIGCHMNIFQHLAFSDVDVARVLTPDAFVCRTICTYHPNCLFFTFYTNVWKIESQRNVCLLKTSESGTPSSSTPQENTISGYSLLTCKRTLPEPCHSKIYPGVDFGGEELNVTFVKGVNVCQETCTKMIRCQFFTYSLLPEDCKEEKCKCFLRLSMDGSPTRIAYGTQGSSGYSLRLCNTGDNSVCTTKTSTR

For orientation: Km means the substrate concentration at which the rate is half of its maximum. The kcat is the number of substrate molecules converted per active site and unit of time at saturation. Turning to “5Fam-KLTRAETV-K5Tamra (5FAM-KLTRAETV-{K(5-TAMRA)}) [fluorophore-quencher pair peptide substrate based on the Arg146 cleavage site of FXI, purchased from New England Peptide]”, in assay [1], the Ki turned out to be 61600 nM, the Km stood at 12.4 µM and the kcat is 0.86 s⁻¹.
Regarding `Cc1cc(=O)oc2cc(NC(=O)[C@H](CCCNC(=N)N)NC(=O)[C@@H]3CCCN3C(=O)CNC(=O)OCc3ccccc3)ccc12` [Z-Gly-Pro-Arg-AMC] (Cbz-Gly-Pro-Arg-{AMC}), in assay [2], the kcat amounted to 0.76 s⁻¹.
For orientation: IC50 means the concentration that gives 50% inhibition. A low value points to higher potency. Regarding `NC(=O)c1ccc(NC(=O)[C@@H]2CC[C@H]3CCC(c4c(-n5cnnn5)ccc(Cl)c4F)=CC(=O)N32)cc1F` [ID No. 20, (3S,9aR)-N-(4-carbamoyl-3-fluorophenyl)-7-(3-chloro-2-fluoro-6-(1H-tetrazol-1-yl)phenyl)-5-oxo-2,3,5,8,9,9a-hexahydro-1H-pyrrolo[1,2-a]azepine-3-carboxamide], the IC50 in assay [3] (30 min preincubation, 15 μM 5Fam-KLTRAETV-K5Tamra substrate, top compound concentration 100 nM, kinetic read) was above 100 nM; in assay [4], 802 nM. In assay [3] (same assay as Factor XIa IC50), this compound returned a Ki above 50 nM.
